According to the supplement of paper PMC6965134:
± gives the standard deviation of the averaged measurements.

Test: TIMS collisional cross section (CCS, N2) of the lipid ion; higher = larger ion cross section
Details: ionization mode: positive, one isomer drawn

Compound	TIMS collisional cross section (sample type: Liver)	TIMS collisional cross section (sample type: HeLa)	TIMS collisional cross section (sample type: plasma)
CCCC/C=C\CCCCCCCC(=O)O[C@H](COC(=O)CCCCCCCCCCCCC)COC(=O)CCCCCCCCCCCCCCC [TG 14:0_14:1_16:0] (ion (formula + adduct): [C47H88O6+NH4] 1+)	299.8 Å²	–	–
CCCC/C=C\CCCCCCCC(=O)O[C@@H](COC(=O)CCCCCCC/C=C\CCCCCC)COC(=O)CCCCCCCCCCCCC [TG 14:0_14:1_16:1] (ion (formula + adduct): [C47H86O6+NH4] 1+)	–	297.4 Å²	–
CCCCCCCCCCCCCCC(=O)OC[C@@H](COC(=O)CCCCCCCCCCCCC)OC(=O)CCCCCCCCCCCCCC [TG 14:0_15:0_15:0] (ion (formula + adduct): [C47H90O6+NH4] 1+)	302 Å²	–	–
CCCCCCCCCCCCCCCC(=O)OC[C@@H](COC(=O)CCCCCCCCCCCCC)OC(=O)CCCCCCCCCCCCCC [TG 14:0_15:0_16:0] (ion (formula + adduct): [C48H92O6+NH4] 1+)	304.9 Å²	–	304.83 ± 0.05 Å²
CCCCCC/C=C\CCCCCCCC(=O)OC[C@@H](COC(=O)CCCCCCCCCCCCC)OC(=O)CCCCCCCCCCCCCC [TG 14:0_15:0_16:1] (ion (formula + adduct): [C48H90O6+NH4] 1+)	–	302.8 Å²	302.85 ± 0.49 Å²
CCCCC/C=C\CCCCCCCC(=O)O[C@H](COC(=O)CCCCCCCCCCCCC)COC(=O)CCCCCCCCCCCCCCC [TG 14:0_15:1_16:0] (ion (formula + adduct): [C48H90O6+NH4] 1+)	303.1 Å²	–	–
CCCCCCCCCCCCCCCC(=O)OC[C@@H](COC(=O)CCCCCCCCCCCCC)OC(=O)CCCCCCCCCCCCCCC [TG 14:0_16:0_16:0] (ion (formula + adduct): [C49H94O6+NH4] 1+)	308.4 Å²	308.5 Å²	308.1 ± 0.22 Å²
CCCCCC/C=C\CCCCCCCC(=O)OC[C@@H](COC(=O)CCCCCCCCCCCCC)OC(=O)CCCCCCCCCCCCCCC [TG 14:0_16:0_16:1] (ion (formula + adduct): [C49H92O6+NH4] 1+)	306.1 Å²	306.03 ± 0.35 Å²	306 ± 0.3 Å²
CCCCCCCCCCCCCCCCC(=O)OC[C@@H](COC(=O)CCCCCCCCCCCCC)OC(=O)CCCCCCCCCCCCCCC [TG 14:0_16:0_17:0] (ion (formula + adduct): [C50H96O6+NH4] 1+)	311.5 Å²	–	–
CCCCCCC/C=C\CCCCCCCC(=O)OC[C@@H](COC(=O)CCCCCCCCCCCCC)OC(=O)CCCCCCCCCCCCCCC [TG 14:0_16:0_17:1] (ion (formula + adduct): [C50H94O6+NH4] 1+)	309 Å²	309.1 Å²	–

Second part, the compound after the results:

TIMS collisional cross section (sample type: Liver)	TIMS collisional cross section (sample type: HeLa)	TIMS collisional cross section (sample type: plasma)	Compound
314.3 Å²	–	–	CCCCCCCCCCCCCCCCCC(=O)OC[C@@H](COC(=O)CCCCCCCCCCCCC)OC(=O)CCCCCCCCCCCCCCC [TG 14:0_16:0_18:0] (ion (formula + adduct): [C51H98O6+NH4] 1+)
312.4 Å²	311.9 ± 0.14 Å²	312.07 ± 0.22 Å²	CCCCCCCC/C=C\CCCCCCCC(=O)OC[C@@H](COC(=O)CCCCCCCCCCCCC)OC(=O)CCCCCCCCCCCCCCC [TG 14:0_16:0_18:1] (ion (formula + adduct): [C51H96O6+NH4] 1+)
308.9 Å²	–	–	CCCCC/C=C\C/C=C\CCCCCCCC(=O)OC[C@@H](COC(=O)CCCCCCCCCCCCC)OC(=O)CCCCCCCCCCCCCCC [TG 14:0_16:0_18:2] (ion (formula + adduct): [C51H94O6+NH4] 1+)
–	320.6 Å²	–	CCCCCCCCCCCCCCCCCCCC(=O)OC[C@@H](COC(=O)CCCCCCCCCCCCC)OC(=O)CCCCCCCCCCCCCCC [TG 14:0_16:0_20:0] (ion (formula + adduct): [C53H102O6+NH4] 1+)
–	–	314.2 Å²	CCCCC/C=C\C/C=C\C/C=C\C/C=C\CCCC(=O)OC[C@@H](COC(=O)CCCCCCCCCCCCC)OC(=O)CCCCCCCCCCCCCCC [TG 14:0_16:0_20:4] (ion (formula + adduct): [C53H94O6+NH4] 1+)
–	318 Å²	–	CC/C=C\C/C=C\C/C=C\C/C=C\C/C=C\CCCCCC(=O)OC[C@@H](COC(=O)CCCCCCCCCCCCC)OC(=O)CCCCCCCCCCCCCCC [TG 14:0_16:0_22:5] (ion (formula + adduct): [C55H96O6+NH4] 1+)
–	317.6 Å²	–	CC/C=C\C/C=C\C/C=C\C/C=C\C/C=C\C/C=C\CCC(=O)OC[C@@H](COC(=O)CCCCCCCCCCCCC)OC(=O)CCCCCCCCCCCCCCC [TG 14:0_16:0_22:6] (ion (formula + adduct): [C55H94O6+NH4] 1+)
–	302.9 ± 0.28 Å²	303.5 Å²	CCCCCC/C=C\CCCCCCCC(=O)OC[C@@H](COC(=O)CCCCCCCCCCCCC)OC(=O)CCCCCCC/C=C\CCCCCC [TG 14:0_16:1_16:1] (ion (formula + adduct): [C49H90O6+NH4] 1+)
–	309.6 Å²	309 Å²	CCCCCC/C=C\CCCCCCCC(=O)O[C@H](COC(=O)CCCCCCCCCCCCC)COC(=O)CCCCCCCCCCCCCCCC [TG 14:0_16:1_17:0] (ion (formula + adduct): [C50H94O6+NH4] 1+)
–	307.1 Å²	307.3 Å²	CCCCCC/C=C\CCCCCCCC(=O)O[C@@H](COC(=O)CCCCCCC/C=C\CCCCCCC)COC(=O)CCCCCCCCCCCCC [TG 14:0_16:1_17:1] (ion (formula + adduct): [C50H92O6+NH4] 1+)
310.3 Å²	309.3 Å²	309.45 ± 0.071 Å²	CCCCCC/C=C\CCCCCCCC(=O)O[C@@H](COC(=O)CCCCCCC/C=C\CCCCCCCC)COC(=O)CCCCCCCCCCCCC [TG 14:0_16:1_18:1] (ion (formula + adduct): [C51H94O6+NH4] 1+)
306.1 Å²	–	307.8 ± 0.92 Å²	CCCCC/C=C\C/C=C\CCCCCCCC(=O)OC[C@@H](COC(=O)CCCCCCCCCCCCC)OC(=O)CCCCCCC/C=C\CCCCCC [TG 14:0_16:1_18:2] (ion (formula + adduct): [C51H92O6+NH4] 1+)
–	311 Å²	–	CCCCC/C=C\C/C=C\C/C=C\C/C=C\CCCC(=O)OC[C@@H](COC(=O)CCCCCCCCCCCCC)OC(=O)CCCCCCC/C=C\CCCCCC [TG 14:0_16:1_20:4] (ion (formula + adduct): [C53H92O6+NH4] 1+)
–	310.6 Å²	–	CC/C=C\C/C=C\C/C=C\C/C=C\C/C=C\CCCC(=O)OC[C@@H](COC(=O)CCCCCCCCCCCCC)OC(=O)CCCCCCC/C=C\CCCCCC [TG 14:0_16:1_20:5] (ion (formula + adduct): [C53H90O6+NH4] 1+)
–	315 Å²	–	CC/C=C\C/C=C\C/C=C\C/C=C\C/C=C\C/C=C\CCC(=O)OC[C@@H](COC(=O)CCCCCCCCCCCCC)OC(=O)CCCCCCC/C=C\CCCCCC [TG 14:0_16:1_22:6] (ion (formula + adduct): [C55H92O6+NH4] 1+)
